According to US6395913B1, “Recovery and purification of 3,4-epoxy-1-butene” (Eastman Chemical Company, priority 2001, dated 2002):

Assays:
Assay type in all cases: physicochemical
[1] = Extraction affinity of water-immiscible solvents: distribution coefficients against a standard water/3-buten-1,2-diol/epoxybutene solution; settings: room temperature; for Distribution Coefficients Epoxy-Butene: 1 part solvent : 1 part standard solution (35% water/65% diol with approx. 10 wt% epoxybutene), GC analysis, ONE PHASE = no phase separation; for Distribution Coefficients Solvent / Distribution Coefficients Water / Distribution Coefficients Diol: 1 part solvent : 1 part standard water-diol-epoxybutene solution; for Distribution Coefficients Diol: diol = 3-buten-1,2-diol
Experimental: This example compares the extraction affinity of various water-immiscible solvents for epoxybutene in the presence of aqueous absorbent mixtures, as occurs in the extraction zone of both embodiments of this invention. A standard mixture of 35% water and 65% 3-buten-1,2-diol (diol) was prepared. […] For each candidate extractant solvent specified in Table 1, one part by weight water-immiscible solvent was added to one part standard water-diol-epoxybutene solution in a separatory funnel. The mixture was vigorously shaken, allowed to settle, then separated into two liquid phases at room temperature. The aqueous and organic layers from the decantation were analyzed by gas chromatography to determine the composition of each layer. From these compositions, distribution coefficients were calculated for epoxybutene, water, diol, and the candidate extractant as follows: [formula]

[2] = Rate of epoxybutene hydrolysis as a function of pH
Source text: Epoxybutene reacts readily with nucleophiles such as water and alcohols to form 3-butene-1,2-diol and glycol ethers, respectively. However, the relative rate of epoxybutene reaction with nucleophiles is a function of pH. Epoxybutene, like other epoxides, undergoes both acid and base catalysis. Acid catalysis has the larger influence on the rate of reaction. For example, the rate of epoxybutene hydrolysis is over 500 times greater at pH 3 than at pH 7. At pH 11, the rate is over 17 times greater than at pH 7. Since it is desirable to minimize epoxybutene losses due to reaction with nucleophiles, EpB reactivity can be reduced by maintaining the epoxybutene-laden solution at or near a pH of about 7 to 8. This can be done by adding a basic compound to the recovery system. Generally the process gas from the reactor contains ppm levels of formic acid and other organic acids. Thus, any basic material which is capable of neutralizing organic acids may be used in the present process. […]

[3] = Epoxybutene loss by reaction (hydrolysis) during continuous distillation; settings: for epoxybutene present in the feed reacted to form 1,2-diol and higher diol oligomers: about 1 bar
Experimental: The distillation was conducted in a silvered, vacuum-jacketed glass Oldershaw column, equipped with a liquid-dividing distillation head, feed tray, reflux magnet, reflux timer, cooling water condenser, jacketed reboiler, pressure gage, and nitrogen purge line. The column was configured with a 15-plate stripping section, a 10-plate rectifying section, and a 500 ml jacketed flask heated by a thermostatted circulating oil bath. Feed to the column was supplied from a 5-liter jacketed vessel via a piston pump and bottoms take-off was removed via a second piston pump. The bottoms product was cooled in a small water-chilled stainless steel heat exchanger placed in line on the suction side of the pump. The distillate product flowed by gravity to a jacketed cooled receiver, which also functioned as a phase decanter. Thermocouples were provided at the reboiler, and distillation head. The continuous run lasted about 12 hours in duration with a total feed of about 1192 grams. A reflux ratio of 1:1 was employed. The column was operated at about 1 bar absolute pressure. During steady state operation the average distillate composition comprised about 16% water, 84% epoxybutene, and less than 0.01% 1,2-diol. The distillate separated into two liquid phases upon settling. The average bottoms product comprised 59.2% water, less than 0.2% epoxybutene, and 39.9% 1,2-diol. Approximately 66% of the epoxybutene present in the feed reacted to form 1,2-diol and higher diol oligomers and 93% of the unreacted epoxybutene was recovered in the distillate.
The distillation was conducted in a silvered, vacuum-jacketed glass Oldershaw column, equipped with a liquid-dividing distillation head, feed tray, reflux magnet, reflux timer, cooling water condenser, jacketed reboiler, pressure gage, and nitrogen purge line. The column was configured with a 15-plate stripping section, a 10-plate rectifying section, and a 500 ml jacketed flask heated by a thermostatted circulating oil bath. Feed to the column was supplied from a 5-liter jacketed vessel via a piston pump and bottoms take-off was removed via a second piston pump. The product removed from the base of the column was cooled in a small water-chilled stainless steel heat exchanger placed in line on the suction side of the pump. The distillate product flowed by gravity to a jacketed cooled receiver, which also functioned as a phase decanter. Thermocouples were provided at the reboiler, and distillation head. The continuous run lasted about 10 hours in duration with a total feed of about 3028 grams. A reflux ratio of 3:1 was employed. The column was operated at about 1 bar absolute pressure. During steady state operation the average distillate composition comprised about 20.4% water, 79.4% epoxybutene, and less than 0.2% 1,2-diol. […]

Structure (SMILES): C=C(C)[C@H]1CC=C(C)CC1 [Limonene]
- Distribution Coefficients Epoxy-Butene [1]: 2.28
- Distribution Coefficients Solvent [1]: 352
- Distribution Coefficients Water [1]: 0.001
- Distribution Coefficients Diol [1]: 0.003

Structure (SMILES): CCC(O)CC [3-Pentanol]
- Distribution Coefficients Epoxy-Butene [1]: ONE PHASE

Structure (SMILES): CCCC(C)=O [2-Pentanone]
- Distribution Coefficients Epoxy-Butene [1]: ONE PHASE

Structure (SMILES): CCC(=O)CC [3-Pentanone]
- Distribution Coefficients Epoxy-Butene [1]: ONE PHASE

Structure (SMILES): Cc1ccc(C)cc1 [p-Xylene]
- Distribution Coefficients Epoxy-Butene [1]: 4.34
- Distribution Coefficients Solvent [1]: 368
- Distribution Coefficients Water [1]: 0.002
- Distribution Coefficients Diol [1]: 0.005

Structure (SMILES): CC(=O)OCCC(C)C [Isopentyl Acetate]
- Distribution Coefficients Epoxy-Butene [1]: 2.80
- Distribution Coefficients Solvent [1]: 25.6
- Distribution Coefficients Water [1]: 0.073
- Distribution Coefficients Diol [1]: 0.181

Structure (SMILES): C[S+](C)[O-] [Dimethylsulfoxide]
- Distribution Coefficients Epoxy-Butene [1]: ONE PHASE

Structure (SMILES): CC(=O)CC(C)C [Methyl Isobutyl Ketone]
- Distribution Coefficients Epoxy-Butene [1]: ONE PHASE

Structure (SMILES): CC(C)C(=O)OCC(C)(C)C(OC(=O)C(C)C)C(C)C (stereo not drawn) [2,2,4-Trimethyl-1,3-Pentanediol Diisobutyrate]
- Distribution Coefficients Epoxy-Butene [1]: 2.19
- Distribution Coefficients Solvent [1]: 124
- Distribution Coefficients Water [1]: 0.012
- Distribution Coefficients Diol [1]: 0.027

Structure (SMILES): Cc1cccc(C)c1 [m-Xylene]
- Distribution Coefficients Epoxy-Butene [1]: 2.32
- Distribution Coefficients Solvent [1]: 1479
- Distribution Coefficients Water [1]: 0.002
- Distribution Coefficients Diol [1]: 0.005

Structure (SMILES): c1ccc2c(c1)CCCC2 [1,2,3,4-Tetrahydronaphthalene]
- Distribution Coefficients Epoxy-Butene [1]: 1.91
- Distribution Coefficients Solvent [1]: 51.8
- Distribution Coefficients Water [1]: 0.010
- Distribution Coefficients Diol [1]: 0.021

Structure (SMILES): CCCCC(CC)CO (stereo not drawn) [2-Ethylhexanol]
- Distribution Coefficients Epoxy-Butene [1]: ONE PHASE

Structure (SMILES): CC1COC(=O)O1 (stereo not drawn) [Propylene Carbonate]
- Distribution Coefficients Epoxy-Butene [1]: ONE PHASE

Structure (SMILES): CC(C)c1cccc(C(C)C)c1 [1,3-Diisopropylbenzene]
- Distribution Coefficients Epoxy-Butene [1]: 1.92
- Distribution Coefficients Solvent [1]: 329
- Distribution Coefficients Water [1]: 0.001
- Distribution Coefficients Diol [1]: 0.004

Structure (SMILES): COCC(C)OC(C)=O (stereo not drawn) [2-Methoxy-1-Methylethyl Acetate]
- Distribution Coefficients Epoxy-Butene [1]: ONE PHASE

Structure (SMILES): O=C1CCCCC1 [Cyclohexanone]
- Distribution Coefficients Epoxy-Butene [1]: ONE PHASE

Structure (SMILES): Cc1cccc2ccccc12 [1-Methylnaphthalene]
- Distribution Coefficients Epoxy-Butene [1]: 3.10
- Distribution Coefficients Solvent [1]: 101
- Distribution Coefficients Water [1]: 0.002
- Distribution Coefficients Diol [1]: 0.006

Structure (SMILES): CCCCCCCCCC [n-Decane]
- Distribution Coefficients Epoxy-Butene [1]: 1.06
- Distribution Coefficients Solvent [1]: 1907
- Distribution Coefficients Water [1]: 0.000
- Distribution Coefficients Diol [1]: 0.001

Structure (SMILES): CC1=CC(=O)CC(C)(C)C1 [Isophorone]
- Distribution Coefficients Epoxy-Butene [1]: ONE PHASE

Structure (SMILES): COC(=O)c1ccccc1 [Methyl Benzoate]
- Distribution Coefficients Epoxy-Butene [1]: 2.84
- Distribution Coefficients Solvent [1]: 6.66
- Distribution Coefficients Water [1]: 0.076
- Distribution Coefficients Diol [1]: 0.155

Structure (SMILES): CC(C)COC(=O)C(C)C [Isobutyl isobutyrate]
- Distribution Coefficients Epoxy-Butene [1]: 3.49
- Distribution Coefficients Solvent [1]: 34.4
- Distribution Coefficients Water [1]: 0.022
- Distribution Coefficients Diol [1]: 0.065

Structure (SMILES): C=CC1CO1 (stereo not drawn) [epoxybutene, 3,4-epoxy-1-butene]
- rate of epoxybutene hydrolysis relative to pH 7 ([2]; pH 3 versus pH 7): over 500 times
- rate of epoxybutene hydrolysis relative to pH 7 ([2]; pH 11 versus pH 7): over 17 times
- epoxybutene present in the feed reacted to form 1,2-diol and higher diol oligomers ([3]; Comparative Example 1: distillation from 45.4% water, 9.1% epoxybutene, 45.5% 1,2-diol): Approximately 66%
- epoxybutene present in the feed reacted to form 1,2-diol and higher diol oligomers ([3]; Example 6: distillation from p-xylene extract): Less than 0.5%
- epoxybutene present in the feed reacted to form 1,2-diol and higher diol oligomers ([3]; Example 7: distillation from isobutyl isobutyrate extract): Less than 0.4%
- percent epoxybutene loss ([3]; Example 11: distillation of water-rich layer (96.92% water, 3.0% epoxybutene), feed pH 8 with K2CO3-H3PO4 buffer, 740 Torr): 1.5%

Structure (SMILES): CCCCOC(=O)CC [Butyl Propionate]
- Distribution Coefficients Epoxy-Butene [1]: 3.96
- Distribution Coefficients Solvent [1]: 14.1
- Distribution Coefficients Water [1]: 0.042
- Distribution Coefficients Diol [1]: 0.115

Structure (SMILES): CCCCCCC [n-Heptane]
- Distribution Coefficients Epoxy-Butene [1]: 1.93
- Distribution Coefficients Solvent [1]: 851
- Distribution Coefficients Water [1]: 0.001
- Distribution Coefficients Diol [1]: 0.001

Structure (SMILES): Clc1ccccc1Cl [1,2-Dichlorobenzene]
- Distribution Coefficients Epoxy-Butene [1]: 3.91
- Distribution Coefficients Solvent [1]: 54.4
- Distribution Coefficients Water [1]: 0.002
- Distribution Coefficients Diol [1]: 0.007

Structure (SMILES): COC(C)(C)C [Methyl t-Butyl Ether]
- Distribution Coefficients Epoxy-Butene [1]: ONE PHASE

Structure (SMILES): C1CCCCC1 [Cyclohexane]
- Distribution Coefficients Epoxy-Butene [1]: 2.09
- Distribution Coefficients Solvent [1]: 215
- Distribution Coefficients Water [1]: 0.001
- Distribution Coefficients Diol [1]: 0.000

Structure (SMILES): ClC(Cl)Cl [Chloroform]
- Distribution Coefficients Epoxy-Butene [1]: 8.73
- Distribution Coefficients Solvent [1]: 8.33
- Distribution Coefficients Water [1]: 0.024
- Distribution Coefficients Diol [1]: 0.106
